Test results as given in ChEMBL document CHEMBL1147753, “Biphenyl-4-ylcarbamoyl thiophene carboxylic acids as potent DHODH inhibitors” (Bioorg Med Chem Lett, 2006).

Assays:
[1] = biological target: Dihydroorotate dehydrogenase (quinone), mitochondrial (Homo sapiens, UniProt Q02127); assay: Inhibitory activity against recombinant human DHODH
[2] = system: PBMC; assay: Antiproliferative activity on human PBMC; format: functional, cell-based

Sequence of Dihydroorotate dehydrogenase (quinone), mitochondrial (Q02127 whole entry): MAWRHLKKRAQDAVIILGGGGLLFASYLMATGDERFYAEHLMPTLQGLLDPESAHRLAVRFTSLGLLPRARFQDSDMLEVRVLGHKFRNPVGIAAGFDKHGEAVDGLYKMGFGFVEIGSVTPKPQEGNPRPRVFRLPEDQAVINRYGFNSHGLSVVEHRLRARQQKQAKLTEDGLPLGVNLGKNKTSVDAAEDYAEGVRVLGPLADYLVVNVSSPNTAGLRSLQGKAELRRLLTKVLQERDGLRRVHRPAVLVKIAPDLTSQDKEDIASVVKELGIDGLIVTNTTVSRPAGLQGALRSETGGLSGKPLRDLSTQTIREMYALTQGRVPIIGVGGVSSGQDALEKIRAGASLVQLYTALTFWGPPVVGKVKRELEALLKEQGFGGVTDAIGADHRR

Row | SMILES | IC50 [1] [nM] | IC50 [2] [nM]
1 | CCOc1cccc(-c2cc(F)c(NC(=O)c3ccsc3C(=O)O)c(F)c2)c1 | 3 | 
2 | CCOc1cccc(-c2cc(F)c(NC(=O)c3cocc3C(=O)O)c(F)c2)c1 | 16 | 15000
3 | COc1cccc(-c2ccc(NC(=O)c3cc(C(=O)O)sc3C(=O)O)c(F)c2)c1 | > 1000 | 
4 | COc1ccccc1-c1c(F)c(F)c(NC(=O)c2ccsc2C(=O)O)c(F)c1F |  | 2000
5 | COc1cccc(-c2ccc(NC(=O)c3c(C(=O)O)csc3C(=O)O)c(F)c2)c1 | > 1000 | 
6 | CCOc1ccccc1-c1cc(F)c(NC(=O)c2ccsc2C(=O)O)c(F)c1 | 9 | 

The next lines start with results.

Row | IC50 [1] [nM] | SMILES | IC50 [2] [nM]
7 | 340 | COc1cccc(-c2ccc(NC(=O)c3cocc3C(=O)O)c(F)c2)c1 | 
8 | > 1000 | COc1cccc(-c2ccc(NC(=O)c3csc(C(=O)O)c3C(=O)O)c(F)c2)c1 | 
9 | 1000 | O=C(O)c1cscc1C(=O)Nc1ccc(-c2ccccc2)cc1 | 
10 | 10 | CCOc1ccccc1-c1cc(F)c(NC(=O)c2cscc2C(=O)O)c(F)c1 | 
11 | 12 | COc1ccccc1-c1ccc(NC(=O)c2ccsc2C(=O)O)cc1Cl | 
12 | 44 | COc1cccc(-c2ccc(NC(=O)c3ccsc3C(=O)O)c(F)c2)c1 | 20000
13 | 303 | O=C(Nc1ccc(-c2ccccc2)cc1)c1ccsc1C(=O)O | 
14 | 10 | O=C(O)c1cscc1C(=O)Nc1c(F)cc(-c2ccccc2OC(F)(F)F)cc1F | 2000
